Source: patent US9090593B2, “Bicyclic compounds as Pim inhibitors” (AMGEN INC., priority 2010, dated 2015)
Structures can show the parent of a compound that is named as a salt. Where two headings read alike, the source gives them in different places.

How the values were obtained:
[1] = target: T1, full length recombinant Pim-1 protein (Homo sapiens, UniProt P11309); test: Pim-1 enzyme assay (HTRF, phosphorylation of biotinylated-BAD (S112) peptide); assay type: biochemical; settings: read-out: Pim_1_IC50
T1 construct: by full length recombinant Pim-1, Pim-2, or Pim-3 protein; hexahistidine tag followed by a thrombin cleavage site (N); made in house; host or cells: Sf9 (baculovirus) or E. coli (pET28)
How it was run: (§1)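 Inhibition is reported as IC50 from a 4-parameter logistic fit of percent-of-control HTRF signal, which tracks phospho-BAD (S112) formed by full-length human Pim-1 or Pim-2. Reactions ran in 60 mM Hepes, pH 7.0, 0.05% BSA, 2 mM DTT.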

[2] = target: T2, Pim-2 stably transfected into the U2OS human osteogenic sarcoma line (Homo sapiens, UniProt Q9P1W9); test: Pim cell assay, phospho-BAD normalized against total BAD, U2OS stably transfected with Pim-2; assay type: cell-based
T2 construct: expressed in transfected cells; host or cells: U2OS human osteogenic sarcoma line
Method: (§2) The cell lines used in the assay were generated by the stable transfection of either Pim-1 or Pim-2 into the U2OS human osteogenic sarcoma line. The assay for determination of the Pim activity in the engineered U2OS cell lines measures levels of phospho-BAD normalized against total BAD protein levels. It was conducted as follows:
(§3) The adherent cells were dissociated from the flasks using non-enzymatic cell dissociation solution (Sigma # C5914). […] The cells were then incubated overnight at 37° C., 5% CO2.
(§4) In addition to the 10-point dosing curve of the test compound, DMSO alone was run as the high control.
(§5) This dilution in DMSO was then diluted again into cell growth medium. Aliquots (12 uL) of the compound diluted in growth medium were then transferred to the appropriate wells of the 96-well plates containing cells to yield a final DMSO concentration of 0.3%.
(§6) The cell plates containing lysis buffer were then immediately stored at −70° C.
(§7) These prepared lysates were then assayed for phospho and total BAD according to the manufacturer's protocols (Meso Scale Diagnostics, Cat# K15103C-3 & # K15103D-3). The plates were read on the MSD Sector Imager 6000, and results were calculated according to the assay protocols ((% Phosphoprotein=((2×Phospho signal)/(Phospho signal+Total signal))×100)).

[3] = target: T3, Pim-1 stably transfected into the U2OS human osteogenic sarcoma line (Homo sapiens, UniProt P11309); test: Pim cell assay, phospho-BAD normalized against total BAD, U2OS stably transfected with Pim-1; assay type: cell-based
T3 construct: expressed in transfected cells; host or cells: U2OS human osteogenic sarcoma line
Method: as §2, §3, §4, §5, §6, §7

[4] = target: T4, full length recombinant Pim-2 protein (Homo sapiens, UniProt Q9P1W9); test: Pim-2 enzyme assay (HTRF, phosphorylation of biotinylated-BAD (S112) peptide); assay type: biochemical; settings: read-out: Pim2_IC50
T4 construct: by full length recombinant Pim-1, Pim-2, or Pim-3 protein; hexahistidine tag followed by a thrombin cleavage site (N); made in house; host or cells: Sf9 (baculovirus) or E. coli (pET28)
How it was run: as §1

[5] = U2OS stably transfected with Pim-2, phospho-BAD normalized against total BAD, 29 min incubation, read-out: Pim2_Cell_IC50_
[6] = U2OS stably transfected with Pim-1, phospho-BAD normalized against total BAD, 29 min incubation, read-out: Pim1_Cell_IC50_
[7] = U2OS cells stably transfected with Pim-2, phospho-BAD, high dose […], read-out: Pim2_Cell_IC50
[8] = U2OS cells stably transfected with Pim-1, phospho-BAD, high dose […], read-out: Pim1_Cell_IC50

T2 sequence (Q9P1W9 whole entry): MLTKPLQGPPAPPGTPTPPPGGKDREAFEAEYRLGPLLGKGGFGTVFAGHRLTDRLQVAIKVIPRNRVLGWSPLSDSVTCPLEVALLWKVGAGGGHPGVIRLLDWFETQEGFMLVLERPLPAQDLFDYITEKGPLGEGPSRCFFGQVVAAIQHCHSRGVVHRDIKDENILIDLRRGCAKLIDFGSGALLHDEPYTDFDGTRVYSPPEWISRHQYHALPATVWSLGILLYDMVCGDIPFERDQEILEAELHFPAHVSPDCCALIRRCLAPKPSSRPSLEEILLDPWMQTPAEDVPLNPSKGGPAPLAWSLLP
T4 sequence (Q9P1W9 whole entry): as above
T1 sequence (P11309 whole entry): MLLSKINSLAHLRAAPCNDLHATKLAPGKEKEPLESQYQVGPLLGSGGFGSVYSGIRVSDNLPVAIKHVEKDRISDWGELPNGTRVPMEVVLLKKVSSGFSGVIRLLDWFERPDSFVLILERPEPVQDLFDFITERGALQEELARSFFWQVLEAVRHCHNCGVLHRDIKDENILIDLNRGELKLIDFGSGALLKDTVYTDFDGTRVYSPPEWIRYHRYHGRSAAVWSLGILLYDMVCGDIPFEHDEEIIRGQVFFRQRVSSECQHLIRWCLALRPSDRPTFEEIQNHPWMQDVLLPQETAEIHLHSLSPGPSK
T3 sequence (P11309 whole entry): as above

| Compound | IC50 [1] [nM] | IC50 [2, 5] [nM] | IC50 [3, 6] [nM] | IC50 [4] [nM] | IC50 ([1]; enzyme assay, Pim-1) [nM] | IC50 [2, 7] [nM] | IC50 [3, 8] [nM] | IC50 ([4]; enzyme assay, Pim-2) [nM] |
| --- | --- | --- | --- | --- | --- | --- | --- | --- |
| COC(=O)c1ccc2[nH]nc(-c3ccnc(N[C@@H]4CCCNC4)n3)c2c1 [Example 490] | 13 | > 15800 | 522 | 54 | – | – | – | – |
| NC1CCN(c2nc(O)cc(-c3n[nH]c4ccc(-c5c(F)cccc5F)cc34)n2)CC1 [Example 565] | 1 | 13500 | 1760 | 2 | – | – | – | – |
| NC1CCN(c2cncc(-c3c[nH]c4ccc(-c5cncc(C6CC6)n5)cc34)n2)CC1 [Example 517] | 2 | > 31600 | 176 | 65 | – | – | – | – |
| N#CC1(c2cccc(-c3ccc4[nH]cc(-c5cncc(O[C@@H]6CCCNC6)n5)c4c3)c2)CCC1 [Example 350] | 6 | > 15800 | 2360 | 193 | – | – | – | – |
| c1cc2[nH]nc(-c3cncc(NC4CC4)n3)c2cc1-c1cncc(C2CC2)n1 [Example 391, N-cyclopropyl-6-(5-(6-cyclopropyl-2-pyrazinyl)-1H-indazol-3-yl)-2-pyrazinamine] | 2 | > 10000 | 114 | 12 | – | – | – | – |
| N#Cc1ccccc1-c1ccc2[nH]cc(-c3cncc(O[C@@H]4CCCNC4)n3)c2c1 [Example 326] | 3 | 7190 | 314 | 10 | – | – | – | – |
| NC1CCN(c2cncc(-c3n[nH]c4ccc(-c5cnc6[nH]nc(C(F)(F)F)c6c5)cc34)n2)CC1 [Example 6, 1-(6-(5-(3-(trifluoromethyl)-1H-pyrazolo[3,4-b]pyridin-5-yl)-1H-indazol-3-yl)pyrazin-2-yl)piperidin-4-amine] | – | – | – | – | 1 | > 31600 | 1880 | 35 |
| Cc1n[nH]c2ncc(-c3ccc4[nH]cc(-c5cncc(O[C@@H]6CCCNC6)n5)c4c3)cc12 [Example 339] | 14 | > 31600 | 2580 | 92 | – | – | – | – |
| Oc1ncc(-c2ccc3[nH]cc(-c4cncc(O[C@@H]5CCCNC5)n4)c3c2)c(O)n1 [Example 293] | 16 | > 31600 | > 31600 | 60 | – | – | – | – |
| NC1CCN(c2cc(O)nc(-c3n[nH]c4ccc(-c5c(F)cccc5F)cc34)n2)CC1 [Example 482] | 1 | > 31600 | 1200 | 4 | – | – | – | – |
| COc1cncc(-c2n[nH]c3ccc(-c4cncc(NC5CC5)n4)cc23)n1 [Example 383, N-cyclopropyl-6-(3-(6-methoxy-2-pyrazinyl)-1H-indazol-5-yl)-2-pyrazinamine] | 1 | 21800 | 44 | 10 | – | – | – | – |
| Nc1cncc(-c2ccc3[nH]nc(-c4cncc(N5CCC(N)CC5)n4)c3c2)c1 [Example 73, 5-(3-(6-(4-amino-1-piperidinyl)-2-pyrazinyl)-1H-indazol-5-yl)-3-pyridinamine] | – | – | – | – | 1 | > 31600 | 885 | 3 |
| Brc1ccc2[nH]nc(-c3cncc(O[C@@H]4CNCCC45CC5)n3)c2c1 [Example 421] | 19 | 31700 | 1150 | 50 | – | – | – | – |
| Cc1ccccc1-c1ccc2[nH]nc(-c3cncc(O[C@H]4CNCCC45CC5)n3)c2c1 [Example 404] | 9 | > 15800 | 2580 | 19 | – | – | – | – |
| c1cc2[nH]cc(-c3cncc(O[C@@H]4CCCNC4)n3)c2cc1-c1cnc2c(c1)CCCN2 [Example 335] | 5 | > 31600 | 1060 | 72 | – | – | – | – |
| Oc1cc(-c2c[nH]c3ccc(-c4c(F)cccc4F)cc23)nc(N2CCOCC2)n1 [Example 483] | 4 | > 31600 | 219 | 32 | – | – | – | – |
| c1cc2[nH]nc(-c3cncc(O[C@H]4CCNCC45CC5)n3)c2cc1-c1cncc(C2CC2)n1 [Example 374, 3-(6-((8S)-5-azaspiro[2.5]oct-8-yloxy)-2-pyrazinyl)-5-(6-cyclopropyl-2-pyrazinyl)-1H-indazole] | 1 | 8090 | 312 | 17 | – | – | – | – |

| Compound | IC50 [1] [nM] | IC50 [2, 5] [nM] | IC50 [3, 6] [nM] | IC50 [4] [nM] | IC50 ([1]; enzyme assay, Pim-1) [nM] | IC50 [2, 7] [nM] | IC50 [3, 8] [nM] | IC50 ([4]; enzyme assay, Pim-2) [nM] |
| --- | --- | --- | --- | --- | --- | --- | --- | --- |
| CC(C)OC(=O)c1ccc2[nH]nc(-c3cncc(N[C@@H]4CCCNC4)n3)c2c1 [Example 474, 1-methylethyl 3-(6-((3R)-3-piperidinylamino)-2-pyrazinyl)-1H-indazole-5-carboxylate] | 2 | 14600 | 108 | 52 | – | – | – | – |
| COc1cncc(-c2n[nH]c3ccc(-c4cncc(C5CC5)n4)cc23)n1 [Example 379] | 2 | > 31600 | 657 | 16 | – | – | – | – |
| CC(C)OC(=O)c1ccc2[nH]nc(-c3cncc(N4CCC(N)CC4)n3)c2c1 [Example 470] | 2 | 8790 | 204 | 8 | – | – | – | – |
| C1=C(c2ccc3[nH]nc(-c4cncc(O[C@H]5CNCCC56CC6)n4)c3c2)CCOC1 [Example 263, 3-(6-((4R)-6-azaspiro[25]oct-4-yloxy)-2-pyrazinyl)-5-(3,6-dihydro-2H-pyran-4-yl)-1H-indazole 2,2,2-trifluoroacetate salt] | 4 | 5760 | 180 | 8 | – | – | – | – |
| NC1CCN(c2ccnc(-c3n[nH]c4ccc(-c5c(F)cccc5F)cc34)n2)CC1 [Example 516] | 6 | > 31600 | 861 | 142 | – | – | – | – |
| FC(F)(F)c1ccccc1-c1ccc2[nH]nc(-c3cncc(O[C@H]4CNCCC45CC5)n3)c2c1 [Example 407] | 20 | > 15800 | 2070 | 51 | – | – | – | – |
| NC1CCN(c2cncc(-c3c[nH]c4ccc(-c5cncc(NC6CC6)n5)cc34)n2)CC1 [Example 519] | 1 | > 31600 | 338 | 128 | – | – | – | – |
| COc1ccc(-c2ccc3[nH]cc(-c4cncc(O[C@@H]5CCCNC5)n4)c3c2)cc1 [Example 321] | 5 | 23600 | 662 | 19 | – | – | – | – |
| c1cc2[nH]cc(-c3cncc(O[C@@H]4CCCNC4)n3)c2cc1-c1cnn(C2CC2)c1 [Example 291, 5-(1-cyclopropyl-1H-pyrazol-4-yl)-3-(6-((3R)-3-piperidinyloxy)-2-pyrazinyl)-1H-indole] | 6 | 11800 | 154 | 32 | – | – | – | – |
| COC(=O)c1ccc2[nH]nc(-c3cncc(N4CCC(N)CC4)n3)c2c1 [Example 558, methyl 3-(6-(4-amino-1-piperidinyl)-2-pyrazinyl)-1H-indazole-5-carboxylate] | 2 | 3800 | 156 | 8 | – | – | – | – |
| COc1ccc(-c2ccc3[nH]cc(-c4cncc(O[C@@H]5CCCNC5)n4)c3c2)cc1F [Example 292] | 4 | ≥ 35200 | 649 | 19 | – | – | – | – |
| COC(=O)c1ccc2[nH]nc(-c3cncc(N[C@@H]4CCCNC4)n3)c2c1 [Example 473] | 4 | 9630 | 221 | 44 | – | – | – | – |
| FC(F)Oc1cccc(-c2ccc3[nH]cc(-c4cncc(O[C@@H]5CCCNC5)n4)c3c2)c1 [Example 344] | 9 | > 15800 | 3610 | 68 | – | – | – | – |
| COC(=O)c1ccc2[nH]nc(-c3cncc(O[C@@H]4CCCNC4)n3)c2c1 [Example 476] | 18 | 31600 | 588 | 144 | – | – | – | – |
| OCc1cccc(-c2ccc3[nH]cc(-c4cncc(O[C@@H]5CCCNC5)n4)c3c2)c1 [Example 315] | 7 | 9060 | 444 | 24 | – | – | – | – |
| NC1CCN(c2cncc(-c3n[nH]c4ccc(-c5cccnc5)cc34)n2)CC1 [Example 82, 1-(6-(5-(3-pyridinyl)-1H-indazol-3-yl)-2-pyrazinyl)-4-piperidinamine] | – | – | – | – | 1 | 7810 | 171 | 7 |
| COc1cc(-c2ccc3[nH]cc(-c4cncc(O[C@@H]5CCCNC5)n4)c3c2)c(F)cn1 [Example 290] | 4 | 6530 | 313 | 11 | – | – | – | – |
